In paper PMC12612973, “Inhibition of Human Amylin Aggregation: In Silico and In Vitro Studies” (ACS Omega, 2025):
Where “and” joins values, the source holds several entries; their conditions need not be identical. Identical values can stand only once.

Tests used:
[1] = target: T1, human amylin (hIAPP) (Homo sapiens, UniProt P10997); assay: Dynamic light scattering (DLS) assay of amylin aggregation; type: biochemical; settings: 36 h incubation; for inhibition at 10 µM: compound 10 μM, amylin 15 μM, 3 trials, read-out: DLS inhibition % (mean ± SEM)
T1 construct: purchased Bachem USA
T1 sequence (P10997 34-70 limits assumed): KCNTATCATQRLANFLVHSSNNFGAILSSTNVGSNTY
Protocol: (§1) A stock solution of amylin (1 mM) (purchased from Bachem USA), peptide sequence: […] amide (with disulfide bond between Cys2 and Cys7), was prepared in 100% hexafluoroisopropyl alcohol (HFIP) (purchased from Sigma-Aldrich) and stored at −20 °C. , Aliquots of amylin peptide were filtered through a 0.22 μm filter from the stock solution and freeze-dried. For kinetic experiments, 15 μM of amylin was prepared in 50 mM Tris-HCl buffer (pH 7.4), as investigated in previous studies by Chaari et al., , Samples of amylin were prepared in the presence or absence of inhibitors. Each compound was dissolved in DMSO and further diluted with the buffer used to solubilize the amylin. The final mixture contained 15 μM amylin, 10 μM of the test compound, 2% DMSO or 15 μM amylin, and 2% DMSO without the compound (negative control). Also 15 μM amylin, 10 μM of oleuropein aglycone and 2% DMSO was used as a positive control. The prepared solutions were incubated under physiological conditions (pH 7.4 and 37 °C) for amylin aggregation. Samples were incubated for 36 h to test for amylin aggregation, and measurements were conducted at different time points.
DLS (Zetasizer, Malvern) was used at a wavelength of 633 nm to measure the average diffusion coefficient distribution of amylin particles and the aggregation percentage. Samples were diluted 10-fold, and 50 μL was placed into a 96-well plate. The total light scattering intensity at a 90° angle was collected using a 10 s averaging acquisition time. Particle translational diffusion coefficients were calculated from autocorrelated light intensity data (usually 30–40 points) and converted to the hydrodynamic radius (R h) using the Stokes–Einstein equation. A distribution plot of intensity versus R h was calculated using the Sedfit 9.3 analysis software, and intensity-weighted mean R h values were obtained from each peak.

[2] = target: T1, human amylin (hIAPP); assay: Thioflavin T (ThT) fluorescence assay of amylin aggregation; type: biochemical; settings: for inhibition at 10 µM: read-out: ThT inhibition % (mean ± SEM), compound 10 μM, amylin 15 μM, 36 h incubation, 3 trials; for ThT inhibition % (mean ± SEM): compound 10 μM, amylin 15 μM, 36 h incubation, 3 trials
Protocol: as §1
Amylin aggregation was monitored by characteristic changes in Thioflavin T (ThT) fluorescence intensity. A ThT stock solution (15 μM) was prepared in deionized water at pH 7.4. The amylin samples were mixed with the ThT solution and allowed to incubate. ThT fluorescence was measured using the PerkinElmer model LS 55 fluorescence spectrophotometer (PerkinElmer, USA), with an excitation wavelength of 440 nm and an emission wavelength of 480 nm. ,− The emission and excitation slits were set to 5 nm, and a 1 cm cuvette was used for all experiments. Nonspecific background fluorescence was subtracted from the samples using appropriate blanks in the absence of proteins. Each experiment was performed in triplicate.

[3] = tested on: Aβ; parameters: method as in Panek et al.; settings: ref Panek et al.; cited from earlier work
[4] = target: T1, human amylin (hIAPP); assay: Thioflavin T (ThT) fluorescence assay of amylin aggregation; type: biochemical; settings: read-out: IC50 of amylin aggregation inhibition
[5] = target: T1, human amylin (hIAPP); assay: Kinetic analysis of amylin aggregation (ThT, two-step autocatalytic aggregation model); type: biochemical; settings: mean ± S.D.; for t 0 (time point when the aggregation starts): 10% of highest ThT fluorescence; for t 1/2 (aggregation halftime): 50% of highest ThT fluorescence; for t 1 (aggregation endpoint): 90% of highest ThT fluorescence; for k / k e (elongation constant) / k n (nucleation constant) / ρ (ratio of kn to k): ThT data, autocatalytic aggregation model
Protocol: Kinetic analysis was performed according to the model of autocatalytic aggregation. According to Sabaté et al., aggregation is a two-step process, comprising nucleation (described by the k n constant) and fibrillation phases (represented by the k e constant). Two constants (k n and k e) are calculated using the eq : 5 f=ρ{e^[(1+ρ)kt]−1}/{1+ρe^[(1+ρ)kt]} where k = k e a (where a represents the initial concentration of the aggregating peptide), f stands for a fraction of the fibrillar form in the system, and ρ denotes the dimensionless ratio of k n to k. The parameters k and ρ were calculated first, then k n and k e.
Data were normalized as a fraction of the highest fluorescence from the three trials and fitted into the model of autocatalytic aggregation. The same procedure was repeated for the remaining trials. The second calculation aimed to find the time parameters of the aggregation process: t 0 (time point when the aggregation starts), t 1/2 (aggregation halftime), and t 1 (aggregation endpoint). t 0, t 1/2, and t 1 were calculated as 10%, 50%, and 90% of the highest fluorescence measurements from the three trials, respectively. All calculations were performed using GraphPad Prism 9.5.1, Statistica 13.3.721.1, and Microsoft Excel 2304.

[6] = tested on: Pancreatic INS-1E cells; assay: MTT cytotoxicity assay of amylin aggregates aged with or without inhibitors; type: cell-based
Protocol: In this study, we utilized Pancreatic INS-1E cells (Department of Cell Physiology and Metabolism, University Medical Center, Switzerland) due to their close physiological similarity to native β-cells, making them highly relevant to our experimental objectives. Pancreatic INS-1E cells were grown in RPMI 1640 medium, supplemented with 2 mM glutamine, 5% fetal calf serum, 10 mM HEPES (pH 7.4), 1 mM sodium pyruvate, 50 μM 2-mercaptoethanol, 100 units/mL penicillin, and 0.1 mg/mL streptomycin. The culturing environment was maintained at 37 °C, 5% CO2, pH 7.4.
The toxicity of human amylin aggregates in the presence or absence of different compounds in the presence of 2% DMSO was assessed by the 3-(4,5-dimethylthiazol-2-yl)-2,5-diphenyltetrazolium bromide (MTT) reduction assay. The cells were cultured and then seeded into 96-well plates and grown for 24 h prior to exposure to different intermediates of amylin or a mixture of amylin with the MTDLs. The final amylin concentration within the culture medium was 5 μM. Cell viability was expressed as the percentage of MTT reduction, using cells treated with the same buffer volume as a reference (100% MTT reduction). The values (averages ± S.D.) were obtained from three independent experiments.

SMILES | inhibition at 10 µM [1] [%] | inhibition at 10 µM [2] [%] | inhibition of Aβ aggregation in the ThT assay [3] | IC50 [4] [µM] | t 0 (time point when the aggregation starts) [5] [h] | t 1/2 (aggregation halftime) [5] [h] | t 1 (aggregation endpoint) [5] [h] | k [5] [h^–1] | k e (elongation constant) [5] | k n (nucleation constant) [5] | ρ (ratio of kn to k) [5] | ThT inhibition % (mean ± SEM) [2] [%] | average particle size of amylin by DLS ([1]; amylin + compound) [nm] | cell viability difference versus the sample with amylin fibrils ([6]; INS-1E cells 24 h, amylin aggregates aged 36 h with 2.92 μM compound 18 or 3.31 μM compound 21) | effect on INS-1E cell viability in presence of amylin ([6]; INS-1E cells cultured with the MTDLs)
COc1ccc(CNCC(O)CCN2CCN(Cc3ccccc3)CC2)cc1 (stereo not shown) [Compound 10] | 27.8 ± 3 | 31.1 ± 0.9 | – | – | – | – | – | – | – | – | – | – | – | – | –
OC(CCN1CCN(C(c2ccccc2)c2ccccc2)CC1)CNCc1ccccc1 (stereo not shown) [Compound 11] | 19 ± 1.8 | 20.8 ± 0.8 | – | – | – | – | – | – | – | – | – | – | – | – | –
COc1ccc(CNCC(O)CCN2CCN(C(c3ccccc3)c3ccccc3)CC2)cc1 (stereo not shown) [Compound 12] | 20.7 ± 2 | 11.9 ± 0.7 | – | – | – | – | – | – | – | – | – | – | – | – | –
CC(C)(C)c1cccc(CNCC(O)CCN2CCN(C(c3ccccc3)c3ccccc3)CC2)c1 (stereo not shown) [Compound 13] | 86.7 ± 4.5 | ~75 | 81.4% and ~82% | 3.75 | 12.49 ± 0.19 | 20.41 ± 0.20 | 28.41 ± 0.23 | 0.2729 ± 0.0025 | 18195 ± 165 M^–1h^–1 | 0.0011 ± 0.0001 h^–1 | 0.0038 ± 0.0002 | 74.7 ± 0.7 | – | – | –
COc1ccc(CNCC(O)CCN2CCN(C(c3ccc(F)cc3)c3ccc(F)cc3)CC2)cc1 (stereo not shown) [Compound 14] | 7.8 ± 0.5 | 5 ± 4.4 | – | – | – | – | – | – | – | – | – | – | – | – | –
OC(CNCc1ccccc1)CNCC(c1ccccc1)c1ccccc1 (stereo not shown) [Compound 15] | 25 ± 2.5 | 37.4 ± 0.4 | – | – | – | – | – | – | – | – | – | – | – | – | –
OC(CNCCC(c1ccccc1)c1ccccc1)CNCc1ccccc1 (stereo not shown) [Compound 16] | 77.9 ± 6 | 58.8 ± 0.7 | – | 3.1 | 11.03 ± 0.22 | 18.22 ± 0.28 | 25.52 ± 0.37 | 0.2996 ± 0.0048 | 19973 ± 320 M^–1h^–1 | 0.0012 ± 0.0001 h^–1 | 0.0042 ± 0.0003 | – | 10 | – | –
CC(C)(C)c1cccc(CNCC(O)CNCC(c2ccccc2)c2ccccc2)c1 (stereo not shown) [Compound 17] | 99 ± 6.5 | > 88 | – | 3.65 | 13.13 ± 1.09 | 21.25 ± 0.20 | 29.48 ± 1.02 | 0.2687 ± 0.0374 | 17913 ± 2489 M^–1h^–1 | 0.0010 ± 0.0006 h^–1 | 0.0040 ± 0.0028 | 88.1 ± 0.9 | – | – | –
OC(CCNCC(c1ccccc1)c1ccccc1)CNCc1ccccc1 (stereo not shown) [Compound 19] | 27.5 ± 3 | 33.7 ± 1.1 | – | – | – | – | – | – | – | – | – | – | – | – | –
OC(CCNCCC(c1ccccc1)c1ccccc1)CNCc1ccccc1 (stereo not shown) [Compound 20] | 20.4 ± 2.5 | 12.6 ± 0.4 | – | – | – | – | – | – | – | – | – | – | – | – | –
CC(C)(C)c1cccc(CNCC(O)CCNCC(c2ccccc2)c2ccccc2)c1 (stereo not shown) [Compound 21] | 99.2 ± 6 | > 88 | – | 3.53 | 9.54 ± 0.29 | 18.66 ± 0.56 | 28.19 ± 1.42 | 0.2273 ± 0.0221 | 15155 M^–1h^–1 and 15155 ± 1477 M^–1h^–1 | 0.003 h^–1 and 0.0032 ± 0.0007 h^–1 | 0.0145 ± 0.0044 | 90.8 ± 1.4 | – | approximately 30 % points | retained cell viability
